The assay deals with P2Y purinoceptor 4 (Homo sapiens, UniProt P51582). Description: Agonist activity at human P2Y4. Type of assay: functional.

Consider one compound from ChEMBL document CHEMBL1782004, “Pyrimidine nucleotides with 4-alkyloxyimino and terminal tetraphosphate δ-ester modifications as selective agonists of the P2Y(4) receptor” (J Med Chem, 2011).

SMILES strings stand for the structures.

Chain of P2Y purinoceptor 4 (P51582 whole entry): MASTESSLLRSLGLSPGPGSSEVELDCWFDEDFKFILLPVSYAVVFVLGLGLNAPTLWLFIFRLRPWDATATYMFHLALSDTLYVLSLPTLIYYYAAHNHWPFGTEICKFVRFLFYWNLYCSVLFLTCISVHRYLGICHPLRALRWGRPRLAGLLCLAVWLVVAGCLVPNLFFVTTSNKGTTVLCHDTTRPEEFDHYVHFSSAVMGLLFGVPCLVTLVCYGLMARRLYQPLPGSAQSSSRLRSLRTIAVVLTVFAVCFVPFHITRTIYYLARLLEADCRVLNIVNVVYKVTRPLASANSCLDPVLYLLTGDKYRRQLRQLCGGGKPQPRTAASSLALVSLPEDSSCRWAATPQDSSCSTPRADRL

For `O=c1ccn([C@@H]2O[C@H](COP(=O)(O)OP(=O)(O)OP(=O)(O)OP(=O)(O)OC[C@H]3O[C@@H](n4ccc(=O)[nH]c4=O)[C@H](O)[C@@H]3O)[C@@H](O)[C@H]2O)c(=O)[nH]1` [DIQUAFOSOL TETRASODIUM], the response was half-maximal at 0.87 µM (EC50).
